According to US7611873B1, “Method for producing L-methionine by fermentation” (priority 1998, dated 2009):

These compounds were tested against T1, homoserine transsuccinylase (HTS) of W3110 strain (wild-type) (Escherichia coli, UniProt P07623) (assay: HTS activity in crude enzyme extract in the presence of inhibitors, W3110 (wild strain)). Conditions: 0.1 mM inhibitor, no addition 22.3.
T1 construct: The HTS activity in the crude enzyme extract was measured; endogenous in cells; host or cells: E. coli W3110 (wild strain), desalted crude enzyme extract
T1 sequence (P07623 whole entry): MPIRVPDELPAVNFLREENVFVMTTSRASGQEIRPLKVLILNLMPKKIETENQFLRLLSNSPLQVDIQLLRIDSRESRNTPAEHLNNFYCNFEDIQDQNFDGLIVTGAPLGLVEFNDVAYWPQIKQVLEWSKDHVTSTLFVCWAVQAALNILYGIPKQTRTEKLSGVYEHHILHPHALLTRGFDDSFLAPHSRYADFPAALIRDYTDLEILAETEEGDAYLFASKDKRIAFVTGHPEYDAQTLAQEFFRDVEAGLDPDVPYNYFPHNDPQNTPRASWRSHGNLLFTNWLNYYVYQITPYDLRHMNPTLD
Assay type: biochemical
Experimental: (§1) In order to confirm the effect of the metJ deletion by the recombination, a crude enzyme extract was prepared from the cells, and the activities of HTS and cystathionine synthase were measured. The W3110 strain and the WΔJ strain were each inoculated to 2 ml of LB medium, and cultured at 37° C. overnight. 1 ml of the medium was centrifuged at 5,000 rpm for 10 minutes, and the cells were washed twice with 0.9% saline. The obtained cell were suspended in 1 ml of 0.9% saline, 0.5 ml of which was inoculated to 50 ml of Davis-Mingioli minimal medium (Davis B. D., and Mingioli, E. S., J. Bacteriol., 60, 17-28 (1950)) containing 5 mM L-methionine. The cells were cultured at 37° C. for 24 hours, then the medium was centrifuged at 8,000 rpm for 10 minutes, and the cells were washed twice with 0.9% saline. The cells were suspended in 3 ml of 50 mM potassium phosphate buffer (pH 7.5) containing 1 mM dithiothreitol. This suspension was subjected to a cell disruption treatment at 4° C. with a power of 150 W for 5 minutes by using an ultrasonicator (Kubota Co.). The sonicated suspension was centrifuged at 15,000 rpm for 30 minutes, and the supernatant was desalted in a Sephadex G-50 column (Pharmacia) to obtain a crude enzyme extract. The HTS activity and the cystathionine synthase activity in the crude enzyme extract were measured.
(§2) As for the HTS activity, 5 μl of the crude enzyme extract was added to a reaction mixture comprising 0.1 M potassium phosphate (pH 7.5), 1 mM succinyl-coenzyme A (Sigma), 0.2 nM DL-[^14C]homoserine (Muromachi Chemical Industry), and 0.2 mM L-homoserine to obtain a volume of 50 μl, and allowed to react at 30° C. for 10 minutes. 1 μl of the reaction mixture was spotted on a cellulose plate (Merck), and developed with a mixed solvent containing acetone, butanol, water, and diethylamine at a ratio of 10:10:5:2. After the plate was air-dried, autoradiography was performed by using an image analyzer (Fuji Photo Film).
(§3) The cells were washed twice with 1 ml of 0.9% saline, and suspended in 1 ml of 0.9% saline, 0.5 ml of which was inoculated to 50 ml of minimal medium and cultured at 37° C. for one day. The medium was centrifuged at 8,000 rpm for 10 minutes, and the cells were washed twice with 1 ml of 0.9% saline. The obtained cells were suspended in 3 ml of 50 mM potassium phosphate buffer (pH 7.5) containing 1 mM dithiothreitol, and a crude enzyme extract was obtained in the same manner as in Example 1. The HTS activity in the crude enzyme extract was measured with the reaction composition mentioned in Example 1 in the presence of an inhibitor.

Row | Compound | HTS activity in the presence of inhibitor [mmol/min/mg protein]
1 | C[S+](CC[C@H](N)C(=O)[O-])C[C@H]1O[C@@H](n2cnc3c(N)ncnc32)[C@H](O)[C@@H]1O (stereo partly drawn) [SAM, S-adenosylmethionine] | 17.0
2 | CSCCC(C)(N)C(=O)O (racemic) [MM, α-methyl-DL-methionine] | 18.6
3 | CSCC[C@H](N)C(=O)O [Met, L-methionine] | 14.3

Same assay, conditions: 1 mM inhibitor, no addition 22.3

Row | Compound | HTS activity in the presence of inhibitor [mmol/min/mg protein]
4 | C[S+](CC[C@H](N)C(=O)[O-])C[C@H]1O[C@@H](n2cnc3c(N)ncnc32)[C@H](O)[C@@H]1O (stereo partly drawn) [SAM, S-adenosylmethionine] | 3.0
5 | CSCCC(C)(N)C(=O)O (racemic) [MM, α-methyl-DL-methionine] | 7.0
6 | CSCC[C@H](N)C(=O)O [Met, L-methionine] | 0.8

Each compound was assayed against T2, HTS derived from MM resistant strain WMM9 (arginine 27 changed to cysteine) (Escherichia coli, UniProt P07623, R27C) (assay: not given). Conditions: WMM9; 0.1 mM inhibitor; no addition 5.0.
T2 construct: The HTS activity in the crude enzyme extract was measured; endogenous in cells; host or cells: E. coli WMM9 (spontaneous MM-resistant mutant of W3110), crude enzyme extract
T2 sequence (P07623 whole entry R27C): as the sequence (P07623 whole entry) above, with R27C counted along it
Assay type: biochemical
Experimental: as §1, §2
(§4) Chromosomal DNA was prepared from these resistant strains. PCR was performed by using each chromosomal DNA as a template and primers having the sequences represented as SEQ ID NOS: 21 and 22 to amplify the metA gene. The nucleotide sequence of each amplification fragment was determined by using primers for amplification of which nucleotide sequences are represented as SEQ ID NOS: 21 and 22, and primers having the sequences represented as SEQ ID NOS: 23 and 24.
as §3

Row | Compound | HTS activity in the presence of inhibitor [mmol/min/mg protein]
7 | C[S+](CC[C@H](N)C(=O)[O-])C[C@H]1O[C@@H](n2cnc3c(N)ncnc32)[C@H](O)[C@@H]1O (stereo partly drawn) [SAM, S-adenosylmethionine] | 1.1
8 | CSCCC(C)(N)C(=O)O (racemic) [MM, α-methyl-DL-methionine] | 4.9
9 | CSCC[C@H](N)C(=O)O [Met, L-methionine] | 2.5

Same assay, conditions: WMM9; 1 mM inhibitor; no addition 5.0

Row | Compound | HTS activity in the presence of inhibitor [mmol/min/mg protein]
10 | C[S+](CC[C@H](N)C(=O)[O-])C[C@H]1O[C@@H](n2cnc3c(N)ncnc32)[C@H](O)[C@@H]1O (stereo partly drawn) [SAM, S-adenosylmethionine] | 0.5
11 | CSCCC(C)(N)C(=O)O (racemic) [MM, α-methyl-DL-methionine] | 2.7
12 | CSCC[C@H](N)C(=O)O [Met, L-methionine] | 2.2

Same assay, conditions: WMM9 strain, compared with wild strain

Row | Compound | Inhibition of HTS activity (in words)
13 | C[S+](CC[C@H](N)C(=O)[O-])C[C@H]1O[C@@H](n2cnc3c(N)ncnc32)[C@H](O)[C@@H]1O (stereo partly drawn) [SAM, S-adenosylmethionine] | hardly canceled
14 | CSCCC(C)(N)C(=O)O (racemic) [MM, α-methyl-DL-methionine] | canceled
15 | CSCC[C@H](N)C(=O)O [Met, L-methionine] | reduced considerably

The compounds below were run against T3, HTS derived from MM resistant strain WMM7 (IS2 insertion, proline 298 and subsequent residues changed) (Escherichia coli, UniProt P07623) (assay: not given). Conditions: 0.1 mM inhibitor, no addition 0.0 (activity undetectable).
T3 construct: The HTS activity in the crude enzyme extract was measured; endogenous in cells; host or cells: E. coli WMM7 (MM-resistant mutant of W3110 with IS2 in metA), crude enzyme extract
T3 sequence (P07623 other isoform, or with tags, fused parts or gaps, stated change not applied): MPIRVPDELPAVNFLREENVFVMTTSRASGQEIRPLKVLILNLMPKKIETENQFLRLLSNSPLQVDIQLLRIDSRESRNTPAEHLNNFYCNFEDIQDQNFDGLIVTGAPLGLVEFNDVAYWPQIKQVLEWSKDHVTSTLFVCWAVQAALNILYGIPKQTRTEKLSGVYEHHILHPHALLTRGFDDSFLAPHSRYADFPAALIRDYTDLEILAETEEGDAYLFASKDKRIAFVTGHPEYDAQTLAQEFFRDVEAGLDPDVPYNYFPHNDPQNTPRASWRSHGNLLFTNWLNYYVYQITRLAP
Assay type: biochemical
Experimental: as §1, §2, §4, §3

Row | Compound | HTS activity in the presence of inhibitor [mmol/min/mg protein]
16 | C[S+](CC[C@H](N)C(=O)[O-])C[C@H]1O[C@@H](n2cnc3c(N)ncnc32)[C@H](O)[C@@H]1O (stereo partly drawn) [SAM, S-adenosylmethionine] | 0.0
17 | CSCCC(C)(N)C(=O)O (racemic) [MM, α-methyl-DL-methionine] | 0.0
18 | CSCC[C@H](N)C(=O)O [Met, L-methionine] | 0.0

Same assay, conditions: 1 mM inhibitor, no addition 0.0 (activity undetectable)

Row | Compound | HTS activity in the presence of inhibitor [mmol/min/mg protein]
19 | C[S+](CC[C@H](N)C(=O)[O-])C[C@H]1O[C@@H](n2cnc3c(N)ncnc32)[C@H](O)[C@@H]1O (stereo partly drawn) [SAM, S-adenosylmethionine] | 0.0
20 | CSCCC(C)(N)C(=O)O (racemic) [MM, α-methyl-DL-methionine] | 0.0
21 | CSCC[C@H](N)C(=O)O [Met, L-methionine] | 0.0

These compounds were tested against T4, HTS derived from MM resistant strain WMM4 (296th isoleucine changed to serine) (Escherichia coli, UniProt P07623, I296S) (assay: not given). Conditions: WMM4; 0.1 mM inhibitor; no addition 4.5.
T4 construct: The HTS activity in the crude enzyme extract was measured; endogenous in cells; host or cells: E. coli WMM4 (spontaneous MM-resistant mutant of W3110), crude enzyme extract
T4 sequence (P07623 whole entry I296S): as the sequence (P07623 whole entry) above, with I296S counted along it
Assay type: biochemical
Experimental: as §1, §2, §4, §3

Row | Compound | HTS activity in the presence of inhibitor [mmol/min/mg protein]
22 | C[S+](CC[C@H](N)C(=O)[O-])C[C@H]1O[C@@H](n2cnc3c(N)ncnc32)[C@H](O)[C@@H]1O (stereo partly drawn) [SAM, S-adenosylmethionine] | 4.6
23 | CSCCC(C)(N)C(=O)O (racemic) [MM, α-methyl-DL-methionine] | 4.1
24 | CSCC[C@H](N)C(=O)O [Met, L-methionine] | 4.5

Same assay, conditions: WMM4; 1 mM inhibitor; no addition 4.5

Row | Compound | HTS activity in the presence of inhibitor [mmol/min/mg protein]
25 | C[S+](CC[C@H](N)C(=O)[O-])C[C@H]1O[C@@H](n2cnc3c(N)ncnc32)[C@H](O)[C@@H]1O (stereo partly drawn) [SAM, S-adenosylmethionine] | 2.6
26 | CSCCC(C)(N)C(=O)O (racemic) [MM, α-methyl-DL-methionine] | 4.6
27 | CSCC[C@H](N)C(=O)O [Met, L-methionine] | 4.0

Same assay, conditions: WMM4 strain, compared with wild strain

Row | Compound | Inhibition of HTS activity (in words)
28 | C[S+](CC[C@H](N)C(=O)[O-])C[C@H]1O[C@@H](n2cnc3c(N)ncnc32)[C@H](O)[C@@H]1O (stereo partly drawn) [SAM, S-adenosylmethionine] | tendency of cancellation
29 | CSCCC(C)(N)C(=O)O (racemic) [MM, α-methyl-DL-methionine] | canceled
30 | CSCC[C@H](N)C(=O)O [Met, L-methionine] | reduced considerably

The compounds below were run against T5, HTS derived from MM resistant strain WMM5 (proline 298 changed to leucine) (Escherichia coli, UniProt P07623, P298L) (assay: not given). Conditions: WMM5; 0.1 mM inhibitor; no addition 4.5.
T5 construct: The HTS activity in the crude enzyme extract was measured; endogenous in cells; host or cells: E. coli WMM5 (spontaneous MM-resistant mutant of W3110), crude enzyme extract
T5 sequence (P07623 whole entry P298L): as the sequence (P07623 whole entry) above, with P298L counted along it
Assay type: biochemical
Experimental: as §1, §2, §4, §3

Row | Compound | HTS activity in the presence of inhibitor [mmol/min/mg protein]
31 | C[S+](CC[C@H](N)C(=O)[O-])C[C@H]1O[C@@H](n2cnc3c(N)ncnc32)[C@H](O)[C@@H]1O (stereo partly drawn) [SAM, S-adenosylmethionine] | 3.6
32 | CSCCC(C)(N)C(=O)O (racemic) [MM, α-methyl-DL-methionine] | 4.6
33 | CSCC[C@H](N)C(=O)O [Met, L-methionine] | 4.2

Same assay, conditions: WMM5; 1 mM inhibitor; no addition 4.5

Row | Compound | HTS activity in the presence of inhibitor [mmol/min/mg protein]
34 | C[S+](CC[C@H](N)C(=O)[O-])C[C@H]1O[C@@H](n2cnc3c(N)ncnc32)[C@H](O)[C@@H]1O (stereo partly drawn) [SAM, S-adenosylmethionine] | 3.3
35 | CSCCC(C)(N)C(=O)O (racemic) [MM, α-methyl-DL-methionine] | 4.8
36 | CSCC[C@H](N)C(=O)O [Met, L-methionine] | 4.0

Same assay, conditions: WMM5 strain, compared with wild strain

Row | Compound | Inhibition of HTS activity (in words)
37 | C[S+](CC[C@H](N)C(=O)[O-])C[C@H]1O[C@@H](n2cnc3c(N)ncnc32)[C@H](O)[C@@H]1O (stereo partly drawn) [SAM, S-adenosylmethionine] | tendency of cancellation
38 | CSCCC(C)(N)C(=O)O (racemic) [MM, α-methyl-DL-methionine] | canceled
39 | CSCC[C@H](N)C(=O)O [Met, L-methionine] | reduced considerably
